Laboratory results from patent publication US4676822A, “Fluid fertilizers containing thiophosphoryl triamide” (Tennessee Valley Authority, priority 1986, dated 1987).
Values joined by “and” are separate entries in the source; they are usually repeats but may differ in a detail not shown here. Equal values may be shown once.

Tests used:
urease [1] = test: Urease inhibition tests with TPTA and PPDA in fluid fertilizers, banded soil system (urease-active Hastings silt loam); assay type: biochemical; settings: for average % urea unhydrolyzed, 3 days / % urea unhydrolyzed, 3 days: 3 days incubation at 25° C.; for average % urea unhydrolyzed, 3 days / average % urea unhydrolyzed, 6 days: average of A and B samples; for % urea unhydrolyzed, 3 days / % urea unhydrolyzed, 6 days: single sample; for average % urea unhydrolyzed, 6 days / % urea unhydrolyzed, 6 days: 6 days incubation at 25° C.
Experimental: Samples of UAN (31-0-0), 1 g, and (36-0-0), 0.66 g containing approximately 0.38 g urea and 0.041 g of TPTA were prepared by dissolving solid TPTA in 31-0-0 and 36-0-0 of the compositions shown in Table I, supra. Identical samples containing PPDA and without either inhibitor were prepared to serve as references for purposes of data comparison.
Urease-active soil (Hastings silt loam) was moistened to a moisture content of 20 percent and preincubated at room temperature for two days. Plexiglass containers (6×6×6 cm) were one-half filled with soil and packed to a bulk density of 1.0 g/cm^3. The 31-0-0 and 36-0-0 samples containing TPTA and PPDA as well as samples containing no inhibitor were distributed evenly in a narrow band 6 cm along the soil surface. The containers were filled with soil and again packed to a bulk density of 1.0 g/cm^3. The containers were incubated at 25° C. for the desired reaction period. After incubation the soil from each container was thoroughly mixed, and a 10-g sample was extracted with 100 mL of 2M KCl containing 5 ppm phenylmercuric acetate to prevent urea hydrolysis during handling [L. A. Douglass and J. M. Bremner, Soil Sci. Soc. Am. Proc. 34, 859-862 (1970)]. The urea in the extracts was determined colorimetrically as a measure of unhydrolyzed urea. The results of three-day and six-day incubation tests are illustrated in Table II infra; and as noted supra, plotted in FIG. 1.

[2] = Stability of TPTA in 40 wt % urea solution (HPLC); assay type: physicochemical; settings: 25° C.; for % original TPTA remaining: 40 wt % urea solution
Experimental: A 40 weight percent urea solution (initial pH=8.5) was prepared by dissolving 80 g of urea in 120 g of water. A sample containing 1 weight percent TPTA was prepared by dissolving 1 g of TPTA in 99 g of the 40 weight percent urea solution. The sample was maintained at room temperature (25° C.) and analyzed periodically for TPTA by HPLC. The results of this kinetic study are given in Table IV infra and as noted supra plotted in FIG. 3 along with the first-order rate equation (solid line FIG. 3) which was determined by linear regression.

[3] = Stability of TPTA in UAN (31-0-0) at 25° C. (HPLC); assay type: physicochemical; settings: for % original TPTA remaining: UAN (31-0-0)
Experimental: A sample containing 1 weight percent TPTA was prepared by dissolving 1 g of TPTA in 99 g of 31-0-0 having the composition given in Table I, supra, and an initial pH of 8.1. The sample was maintained at room temperature (25° C.) and analyzed periodically for TPTA by HPLC. The results of the kinetic study are given in Table V infra and as noted supra plotted in FIG. 4 along with the first-order rate equation (solid line in FIG. 4) which was determined by linear regression.

[4] = Stability of TPTA in UAN (36-0-0) at 25° C. (HPLC); assay type: physicochemical; settings: for % original TPTA remaining: UAN (36-0-0)
Experimental: A sample containing 1 weight percent TPTA was prepared by dissolving 1 g of TPTA in 99 g of 36-0-0 having the composition given in Table I, supra, and an initial pH of 7.4. The sample was maintained at room temperature (25° C.) and analyzed periodically for TPTA by HPLC.
The results of this kinetic study are given in Table V supra, and as noted supra, plotted in FIG. 4 along with the first-order rate equation (solid line in FIG. 4) which was determined by linear regression.

urease [5] = settings: prior art; cited from earlier work
[6] = compared with PPDA; cited from earlier work
[7] = 25° C., water partial pressure 12.73 mm of Hg; cited from earlier work

SMILES: NP(N)(N)=S [TPTA, thiophosphoryl triamide]
- average % urea unhydrolyzed, 3 days (urease [1]; UAN (31-0-0)): 97.90%
- % urea unhydrolyzed, 3 days (urease [1]; UAN (31-0-0)): 101.90% and 93.89%
- average % urea unhydrolyzed, 6 days (urease [1]; UAN (31-0-0)): 48.48%
- % urea unhydrolyzed, 6 days (urease [1]; UAN (31-0-0)): 47.75% and 49.21%
- average % urea unhydrolyzed, 3 days (urease [1]; UAN (36-0-0)): 88% and 87.63%
- % urea unhydrolyzed, 3 days (urease [1]; UAN (36-0-0)): 91.03% and 84.24%
- average % urea unhydrolyzed, 6 days (urease [1]; UAN (36-0-0)): 47.82% and 48%
- % urea unhydrolyzed, 6 days (urease [1]; UAN (36-0-0)): 44.37% and 51.28%
- amount of unhydrolyzed urea in the soil relative to PPDA treatment (urease [1]; after six days): approximately four times that of the PPDA treatment
- reaction half-life in 40 weight percent urea solution ([2]; 1 wt % TPTA, initial pH 8.5, first-order): 168 days
- % original TPTA remaining ([2]; time 0.00 days): 100.00%
- % original TPTA remaining ([2]; time 9.04 days): 94.96%
- % original TPTA remaining ([2]; time 9.25 days): 94.83%
- % original TPTA remaining ([2]; time 10.21 days): 93.97%
- % original TPTA remaining ([2]; time 13.05 days): 94.25%
- % original TPTA remaining ([2]; time 14.99 days): 89.47%
- % original TPTA remaining ([2]; time 17.22 days): 88.78%
- % original TPTA remaining ([2]; time 20.27 days): 91.44%
- % original TPTA remaining ([2]; time 22.12 days): 87.44%
- % original TPTA remaining ([2]; time 24.07 days): 88.80%
- % original TPTA remaining ([2]; time 29.19 days): 87.81%
- % original TPTA remaining ([2]; time 31.23 days): 87.90%
- % original TPTA remaining ([2]; time 34.23 days): 88.52%
- % original TPTA remaining ([2]; time 36.03 days): 86.26%
- % original TPTA remaining ([2]; time 38.19 days): 91.36%
- % original TPTA remaining ([2]; time 41.19 days): 88.11%
- % original TPTA remaining ([2]; time 43.10 days): 78.25%
- % original TPTA remaining ([2]; time 45.07 days): 79.73%
- % original TPTA remaining ([2]; time 48.04 days): 76.59%
- % original TPTA remaining ([2]; time 50.20 days): 78.68%
- % original TPTA remaining ([2]; time 52.00 days, 74880 min): 76.66% and 76.56%
- % original TPTA remaining ([2]; time 56.04 days): 76.52%
- % original TPTA remaining ([2]; time 62.02 days): 76.02%
- % original TPTA remaining ([2]; time 76.14 days, 109642 min): 76.78%
- % original TPTA remaining ([2]; time 83.11 days, 119678 min): 70.05%
- % original TPTA remaining ([2]; time 97.06 days, 139766 min): 65.19%
- reaction half-life in the 31-0-0 solution ([3]; 1 wt % TPTA, initial pH 8.1, first-order): 93 days
- % original TPTA remaining ([3]; time 0.00 days): 100.00%
- % original TPTA remaining ([3]; time 1.22 days): 100.00%
- % original TPTA remaining ([3]; time 5.22 days): 97.60%
- % original TPTA remaining ([3]; time 7.13 days): 100.00%
- % original TPTA remaining ([3]; time 9.09 days): 99.55%
- % original TPTA remaining ([3]; time 12.07 days): 101.78%
- % original TPTA remaining ([3]; time 14.22 days): 100.47%
- % original TPTA remaining ([3]; time 16.01 days, 23054.4 min): 95.59% and 95.43%
- % original TPTA remaining ([3]; time 20.05 days): 89.05%
- % original TPTA remaining ([3]; time 26.05 days): 95.55%
- % original TPTA remaining ([3]; time 40.17 days): 79.49%
- % original TPTA remaining ([3]; time 47.14 days): 79.62%
- % original TPTA remaining ([3]; time 61.08 days): 74.35%
- % original TPTA remaining ([3]; time 64.99 days): 63.03%
- % original TPTA remaining ([3]; time 71.70 days): 68.55%
- % original TPTA remaining ([3]; time 82.71 days, 119102 min): 43.85%
- % original TPTA remaining ([3]; time 90.71 days, 130622 min): 52.17%
- % original TPTA remaining ([3]; time 96.75 days): 51.55%
- % original TPTA remaining ([3]; time 103.71 days): 52.04%
- % original TPTA remaining ([3]; time 111.71 days): 47.46%
- reaction half-life in the 36-0-0 solution ([4]; 1 wt % TPTA, initial pH 7.4, first-order): 43 days
- % original TPTA remaining ([4]; time 0.00 days): 100.00%
- % original TPTA remaining ([4]; time 1.22 days): 100.00%
- % original TPTA remaining ([4]; time 5.22 days): 93.60%
- % original TPTA remaining ([4]; time 7.13 days): 97.15%
- % original TPTA remaining ([4]; time 9.09 days): 81.12%
- % original TPTA remaining ([4]; time 12.07 days): 82.21%
- % original TPTA remaining ([4]; time 14.22 days): 84.30%
- % original TPTA remaining ([4]; time 16.01 days, 23054.4 min): 79.90% and 73.86%
- % original TPTA remaining ([4]; time 20.05 days): 70.87%
- % original TPTA remaining ([4]; time 26.05 days): 72.43%
- % original TPTA remaining ([4]; time 40.17 days): 43.14%
- % original TPTA remaining ([4]; time 47.14 days): 42.94%
- % original TPTA remaining ([4]; time 61.08 days): 32.25%
- % original TPTA remaining ([4]; time 64.99 days): 41.41%
- % original TPTA remaining ([4]; time 71.70 days): 31.14%
- % original TPTA remaining ([4]; time 82.71 days, 119102 min): 29.60%
- % original TPTA remaining ([4]; time 90.71 days, 130622 min): 20.67%
- % original TPTA remaining ([4]; time 96.75 days): 25.07%
- % original TPTA remaining ([4]; time 103.71 days): 21.73%
- % original TPTA remaining ([4]; time 111.71 days): 13.09%
- urease inhibition (in words) (urease [5]): comparable and in some cases more effective than PPDA
- stability in urea melt [6]: substantially more stable in urea melt than PPDA
- reaction half-life in solid mixtures with urea [7]: 1.6 days
